{"source": "patent US20210403455A1", "about": "(priority 2018, published 2021)", "test_system": "rice blast", "format": "cell-based", "settings": "acetone solution at 500 ppm, 1000 μl dropped on oatmeal medium; 8 mm rice blast disc; 25° C. for five days; fungal filament elongation vs acetone-only treatment", "data": [{"compound": "COc1nc(-c2ccccn2)nc(F)c1C(F)(F)F", "note": "[Example 3, 6-fluoro-4-methoxy-2-(2-pyridyl)-5-trifluoromethylpyrimidine]", "values": [{"measurement": "Preventive value", "result": 80}]}]}
